Laboratory results taken from patent publication US10017762B2, “Compositions and methods for treating or preventing lupus” (The United States of America, as represented by the …, priority 2010, dated 2018).

What was measured:
[1] = test system: blood basophils; experiment: Blood basophil numbers and HLA-DR expression in SLE patients under immunosuppressive treatments; format: in vivo, human; conditions: low dose (≤7.5 mg/day) vs medium to high dose (>7.5 mg/day) prednisone
Experimental: Blood was harvested in EDTA-coated tubes. 4 ml of blood was used to harvest plasma sample. For this purpose, blood was centrifugated at 600×g for 20 minutes at 4° C. Plasma phase was then harvested, and samples kept at […] until further analysis. For basophils analysis, 10 ml of whole blood were added to 20 ml of ACK lysing buffer and incubated 5 min at room temperature and 5 more minutes on ice. 30 ml of PBS was added, and cells were centrifuged (500×g, 5 min). This step was repeated three times total until no more red blood cells were visible. Cells were then resuspended into 10 ml (original volume) of FACS buffer (PBS/1% BSA/0.05% NaN3). Number of leukocytes per ml and viability were assessed with a ViCell cell counter (Beckman and Coulter). Viability was always over 90%. Cells were then processed for extracellular staining with the indicated surface markers. For basophil absolute counts, basophils were identified as FcϵRIα^+CD203c^+CD123^+CD11b^+ cells. For HLA-DR expression analysis, basophils were identified as FcϵRI^+CD203c^+CD11b^+. For CD62L expression analysis, basophils were identified as FcϵRIα^+CD203c^+CD123^+.

[2] = test system: FcϵRI; conditions: Lin, H. et al. (2004); cited from earlier work

| Compound | HLA-DR expressing basophils [1] | number of peripheral basophils [1] | FcϵRI expression on basophils [2] |
| --- | --- | --- | --- |
| C[C@]12C=CC(=O)C=C1CC[C@@H]1[C@@H]2C(=O)C[C@@]2(C)[C@H]1CC[C@]2(O)C(=O)CO [prednisone] | no difference | no difference | – |
| omalizumab: recombinant DNA-derived humanized IgG monoclonal antibody that selectively binds to human immunoglobulin E (IgE) | – | – | decreases FcϵRI expression on basophils |
